From PubChem BioAssay (NCI) come the findings set out here.

“And” between values parts separate entries of the source, which are not always exact repeats. Identical values can stand only once.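 Cells were grown in 96-well plates and exposed to each compound for 48 hours at five concentrations; endpoints were interpolated linearly between bracketing concentrations, or set to the highest concentration if not reached. GI50 marks 50% less growth. TGI marks complete inhibition of growth.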 Where only a bound is given, the exact number is not on record here.

Common to all, as to experiment: NCI-60 cell line screen, 48 h
Assay [1] relates to MDA-MB-435.
Assay [2] concerns SK-MEL-2 melanoma.
In assay [3] the test system is SF-295 CNS.
Assay [4] deals with SNB-19 CNS.
Assay [5] deals with NCI-H226 lung.
Assay [6] concerns SF-268 CNS.
Assay [7] relates to CCRF-CEM leukemia.
For assay [8], the system named is 786-0 renal.
Assay [9] deals with RPMI-8226 leukemia.
Assay [10] deals with SN12C renal.

`Cc1c(N)nc(C(CC(N)=O)NCC(N)C(N)=O)nc1C(=O)NC(C(=O)NC(C)C(O)C(C)C(=O)NC(C(=O)NCCc1nc(-c2nc(C(=O)NCCCNC(C)c3ccccc3)cs2)cs1)C(C)O)C(OC1OC(CO)C(O)C(O)C1OC1OC(CO)C(O)C(OC(N)=O)C1O)c1cnc[nH]1` (centres undefined): the GI50 in assay [1] is 76 µM; in [2], 66.5 µM; in [3], 0.115 µM; in assay [4] it was 14.5 µM; in assay [5], 1.59 µM; in [6], 11.1 µM. The GI50 is 7.5 µM in [7], 1.38 µM in assay [8], 50.4 µM in [9] and 5.99 µM in assay [10]. The TGI in [1] was greater than 100 µM; in assay [2], 30.6 µM and > 100 µM; in assay [3] it was 5.22 µM and 3.46 µM; in assay [4], 39.7 µM and > 100 µM; in [5], 2.97 µM and 24.8 µM; in [6], 50 µM and 94.7 µM. The TGI is 50 µM and > 100 µM in assay [7]; 43.7 µM and 33.9 µM in assay [8]; 20.3 µM and > 100 µM in [9]; 29.3 µM and > 100 µM in [10].

On to `CC(=O)O[C@H]1C(=O)[C@@]2(C)[C@H]([C@H](OC(=O)c3ccccc3)[C@]3(O)C[C@H](OC(=O)[C@H](OC(=O)OC[C@H]4COC(C)(C)O4)[C@@H](NC(=O)c4ccccc4)c4ccccc4)C(C)=C1C3(C)C)[C@]1(OC(C)=O)CO[C@@H]1C[C@@H]2O`, for which the GI50 in assay [1] was 0.00333 µM; in assay [2], 0.0978 µM; in [3] it was 0.0365 µM; in assay [4], 0.0615 µM; in assay [5] it was 0.29 µM; in [6] it was 0.165 µM. For the same molecule, the GI50 was 0.0265 µM in assay [7], 0.122 µM in [8], 0.00754 µM in assay [9] and 0.0483 µM in assay [10]. The TGI in assay [1] was 0.00852 µM; in [2] it was greater than 33.3 µM; in [3], 0.314 µM; in assay [4] it was greater than 33.3 µM; in assay [5] it was greater than 33.3 µM; in assay [6], greater than 33.3 µM. In addition, the TGI in assay [7], in [8], in assay [9] and in assay [10] was greater than 33.3 µM in each case.

`CC(=O)OC12c3ccccc3-c3ccccc3C1C(C(=O)O)C2C(=O)O` (centres undefined): the TGI in assay [1], in assay [2], in [3], in assay [4], in assay [5] and in assay [6] was greater than 10 µM throughout. Moreover, the TGI in assay [7], in assay [8], in assay [9] and in assay [10] was greater than 10 µM throughout.

Consider `Nc1nc2cc(CC[C@H]3C[C@@H](n4ccc5c(N)ncnc54)[C@H](O)[C@@H]3O)ccc2cc1Br`, for which the GI50 in assay [1] was 4.34 µM; in assay [2], 10.9 µM; in [3] it was 3.25 µM; in assay [4] it was 7.09 µM; in assay [5], 2.71 µM; in assay [6], 11.3 µM. The GI50 is 12.3 µM in assay [7], 12.7 µM in [8], 4.92 µM in [9] and 8.59 µM in [10]. Moreover, the TGI turned out to be 18.4 µM in assay [1]; 25.1 µM in [2]; 19 µM in assay [3]; 23.5 µM in assay [4]; 26.8 µM in [5]; 27 µM in [6]. In addition, the TGI in assay [7] was greater than 100 µM; in assay [8], 28.9 µM; in assay [9] it was 57.2 µM; in [10], 22.4 µM.

Consider `Clc1ccc2nc(CI)c(CI)nc2c1`, for which the GI50 in [1] was 3.16 µM; in [2], 6.45 µM; in [3], 15.4 µM; in [4], 33.2 µM; in [5], 10.4 µM; in assay [6], 4.69 µM. For the same molecule, the GI50 in assay [7] is 2.3 µM; in assay [8], 4.07 µM; in [9] it was 2.62 µM; in assay [10], 2.94 µM. In addition, the TGI in [1] is 14.4 µM; in assay [2], greater than 32.6 µM; in assay [3], 36.8 µM; in assay [4], greater than 59.4 µM; in assay [5] it was greater than 38 µM; in assay [6] it was 14.3 µM. The figures for the TGI in assay [7], in assay [9] and in assay [10] were 15.3 µM, 8.25 µM and 8.62 µM, respectively.

For the molecule `Cn1nc(C(F)(F)F)c(-c2cc(C(F)(F)F)cc(C(F)(F)F)c2)c1-c1ccc(OCc2ccc(Cl)cc2)cc1O`, the GI50 in assay [1] was 2.54 µM; in assay [2], 1.73 µM; in [3], 2.31 µM; in assay [4], 2.78 µM; in [5] it was 2.1 µM; in [6], 2.65 µM. Further, the GI50 was 2.26 µM in assay [7], 1.63 µM in assay [8], 2.26 µM in [9] and 1.96 µM in assay [10]. For the same molecule, the TGI in assay [1] worked out at 8.03 µM; in assay [2] it was 4.09 µM; in assay [3], 7.3 µM; in assay [4], 14.8 µM; in assay [5], 5.67 µM; in assay [6] it was 13 µM. Further, the TGI turned out to be 14.9 µM in assay [7], 3.28 µM in assay [8], 7.22 µM in [9] and 10.3 µM in [10].

Regarding `N#C/C(=N\Nc1ccccc1)C(=O)Nc1cc(-c2ccccc2)nn1-c1ccccc1`, the GI50 in assay [1] is 3.05 µM; in assay [2] it was 2.19 µM; in assay [3] it was 3.14 µM; in [4], 3.6 µM; in [5], 2.8 µM; in [6] it was 3.85 µM. The GI50 in assay [7] was 2.5 µM; in assay [8], 3.04 µM; in assay [9] it was 1.8 µM; in assay [10] it was 2.74 µM. Besides, the TGI in assay [1] is greater than 100 µM; in assay [2], 9.94 µM; in assay [3] it was greater than 100 µM; in assay [4], greater than 100 µM; in assay [5], greater than 100 µM; in [6] it was greater than 100 µM. The TGI in assay [7] was greater than 100 µM; in assay [8] it was 16.3 µM; in assay [9], 39.2 µM; in assay [10] it was greater than 100 µM.
